Source: PubChem BioAssay AID2719 (The Scripps Research Institute Molecular Screening Center, 2010)

The compounds below were run against Mucolipin-3 (Homo sapiens) (UniProt Q8TDD5) (assay: TRPML3 and related TRP channel activation – cell-based, HEK293 transfected, Fura-2 ratio imaging, selectivity assay for selective TRPML3 agonist project, profiling panel (AID 2719)). Details: fura-2 calcium ratio, at 10 µM, active compounds read high.
Chain of Mucolipin-3 (Homo sapiens) (Q8TDD5 whole entry, looked up): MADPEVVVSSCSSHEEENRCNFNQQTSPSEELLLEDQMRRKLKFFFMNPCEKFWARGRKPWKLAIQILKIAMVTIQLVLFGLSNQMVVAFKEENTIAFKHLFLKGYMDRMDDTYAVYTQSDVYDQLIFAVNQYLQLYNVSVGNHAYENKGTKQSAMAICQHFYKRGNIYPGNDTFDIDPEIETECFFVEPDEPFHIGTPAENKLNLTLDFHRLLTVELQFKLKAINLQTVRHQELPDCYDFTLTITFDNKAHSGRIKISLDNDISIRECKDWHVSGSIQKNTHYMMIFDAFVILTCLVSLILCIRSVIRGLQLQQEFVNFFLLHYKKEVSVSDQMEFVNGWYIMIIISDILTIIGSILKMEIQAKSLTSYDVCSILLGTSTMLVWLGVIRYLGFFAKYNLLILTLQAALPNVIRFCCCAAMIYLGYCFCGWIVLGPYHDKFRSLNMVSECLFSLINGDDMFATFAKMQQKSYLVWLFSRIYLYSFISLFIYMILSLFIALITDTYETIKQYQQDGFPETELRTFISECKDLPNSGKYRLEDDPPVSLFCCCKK

| Compound | fura-2 ratio change (340/380) |
| --- | --- |
| Cc1ccc(S(=O)(=O)n2nccc2-c2c(-c3ccc(Cl)cc3)noc2C)cc1 | 0.72 |
| CCOc1ccc(S(=O)(=O)N2CCCCCC2)c2ccccc12 | 1 |
| CC1CCN(S(=O)(=O)c2ccc(C(C)C)cc2)CC1 | 0.52 |
